Test system: bacteria in the urine sample
Test: Gram classification by treatment impact in microfluidic device (FIGS. 10 to 13)
Format: cell-based, Escherichia coli
Conditions: LIN 4 μg/ml and VAN 32 μg/ml at T1=25 min; NaCl 340 mM at 10-22 min
Source text: In this embodiment, bacterial cells from a biological sample are exposed to four different treatments (Tr1 to Tr4). […] The combination of LIN/VAN in the first treatment Tr1 is generally effective against gram-positive bacteria but has no or little antibacterial activity against gram-negative bacteria. […] AMC used in the third treatment Tr3 has broad antibacterial activity against both gram-positive and gram-negative bacteria. It, though, generally has slower antibacterial activity against Staphylococcus as compared to against Enterococcus. FOS used in the fourth treatment Tr4 has a broad antibacterial activity against both gram-positive and gram-negative bacteria. It, though, generally has a slower antibacterial activity against Staphylococcus as compared to against Enterococcus. Bacterial cells from the biological sample are preferably exposed to respective treatment in parallel. In this example, a respective impact parameter is determined for each treatment after a respective treatment period (T1 to T5) and then compared to a respective cutoff or threshold value. The respective treatment periods T1 to T5 could be the same but are typically different and adapted to the particular antimicrobial agent or mixture or salt or salt mixture. […] A urine sample was loaded into the microfluidic device 5 and bacterial growth was monitored in the different sets 130 of cell channels. […]

Compound: [Cl-].[Na+] [NaCl, sodium chloride]
- candidate gram classification indicated by treatment: gram negative

Reference: US20240425898A1, “BACTERIA CLASSIFICATION AND ANALYSIS” (SYSMEX ASTREGO AB, priority 2023, published 2024)
